Data reported in patent US10597390B2, “Indoles for use in influenza virus infection” (Janssen Sciences Ireland UC, priority 2014, dated 2020).

Assays:
[1] = system: influenza virus A/Taiwan/1/86 (H1N1); experiment: organism not typed; type: cell-based; conditions: MDCK, 72 h, CPE in MDCK cells, three days post-virus exposure, ATPlite
in vitro = conditions: dog, TOX MDCK CC50

Cc1cc(F)c2[nH]cc(-c3nc(N[C@@H]4CCC[C@@H](NC(=O)c5ccccn5)C4)c(F)cc3C#N)c2c1 (racemic) [Compound 22, N-((cis)-3-((5-cyano-3-fluoro-6-(7-fluoro-5-methyl-1H-indol-3-yl)-pyridin-2-yl)amino)cyclohexyl)picolinamide]
IC50 [1]: 12 nM
melting point: 98 °C
CC50 at 3 days (in vitro): > 25000 nM

NC(=O)c1cc(F)c(N[C@@H]2CCC[C@H](NC(=O)N3CCCC3)C2)nc1-c1c[nH]c2c(F)cc(F)cc12 (racemic) [Compound 23]
IC50 [1]: 140 nM
melting point: 249.2 °C
CC50 at 3 days (in vitro): > 25000 nM

Cc1cc(C(=O)N[C@@H]2CCC[C@H](Nc3nc(-c4c[nH]c5c(F)cc(Cl)cc45)ncc3F)C2)on1 (racemic) [Compound 29]
IC50 [1]: 17 nM
melting point: 246.7 °C
CC50 at 3 days (in vitro): 3400 nM

Cc1cc(F)c2[nH]cc(-c3ncc(F)c(NC(CC(=O)O)C(C)(C)C)n3)c2c1 (racemic) [Compound 167]
IC50 [1]: 30 nM
melting point: 182 °C
CC50 at 3 days (in vitro): 3500 nM

Cc1cc(F)c2[nH]cc(-c3nc(N[C@@H]4CCC[C@@H](NC(=O)c5ncoc5C)C4)c(F)cc3C#N)c2c1 (racemic) [Compound 192]
IC50 [1]: 11 nM
melting point: > 250 °C
CC50 at 3 days (in vitro): > 25000 nM

Cc1cc(F)c2[nH]cc(-c3ncc(F)c(N[C@H]4CCC[C@@H](NC(=O)c5ncsc5C)C4)n3)c2c1 (racemic) [Compound 193]
IC50 [1]: 5 nM
melting point: 234 °C
CC50 at 3 days (in vitro): 3600 nM

Cc1cc(F)c2[nH]cc(-c3ncc(F)c(N[C@@H]4CCC[C@@H](NC(=O)c5ncoc5C)C4)n3)c2c1 (racemic) [Compound 194]
IC50 [1]: 17 nM
melting point: 140 °C
CC50 at 3 days (in vitro): 11200 nM

Cc1cc(F)c2[nH]cc(-c3nc(N[C@H]4CCC[C@@H](NC(=O)c5cn(C)cn5)C4)c(F)cc3C#N)c2c1 (racemic) [Compound 195]
IC50 [1]: 20 nM
melting point: > 250 °C
CC50 at 3 days (in vitro): 6600 nM

Cc1cc(F)c2[nH]cc(-c3ncc(F)c(N[C@@H]4CCC[C@@H](NC(=O)c5cn(C)cn5)C4)n3)c2c1 (racemic) [Compound 196]
IC50 [1]: 21 nM
melting point: > 250 °C
CC50 at 3 days (in vitro): 10300 nM

Cc1cc(F)c2[nH]cc(-c3ncc(F)c(N[C@@H]4CCC[C@@H](NC(=O)c5cncn5C)C4)n3)c2c1 (racemic) [Compound 198]
IC50 [1]: 40 nM
melting point: 98 °C
CC50 at 3 days (in vitro): 9700 nM

Cc1cc(F)c2[nH]cc(-c3ncc(F)c(N[C@@H]4CCC[C@@H](NC(=O)c5nc(C)oc5C)C4)n3)c2c1 (racemic) [Compound 199]
IC50 [1]: 46 nM
melting point: 170 °C
CC50 at 3 days (in vitro): 13000 nM

Cc1cc(F)c2[nH]cc(-c3nc(N[C@@H]4CCC[C@@H](NC(=O)c5nc(C)oc5C)C4)c(F)cc3C#N)c2c1 (racemic) [Compound 200]
IC50 [1]: 160 nM
melting point: > 250 °C
CC50 at 3 days (in vitro): > 25000 nM

Cc1cc(F)c2[nH]cc(-c3nc(N[C@@H]4CCC[C@@H](NC(=O)c5cncs5)C4)c(F)cc3C#N)c2c1 (racemic) [Compound 201]
IC50 [1]: 10 nM
melting point: > 250 °C
CC50 at 3 days (in vitro): > 21800 nM

Cn1ccc(C(=O)N[C@@H]2CCC[C@@H](Nc3nc(-c4c[nH]c5c(F)cc(F)cc45)c(C#N)cc3F)C2)n1 (racemic) [Compound 205]
IC50 [1]: 4 nM
melting point: 103 °C
CC50 at 3 days (in vitro): > 25000 nM

N#Cc1cc(F)c(N[C@H]2CCC[C@@H](NC(=O)c3ncccc3F)C2)nc1-c1c[nH]c2c(F)cc(F)cc12 (racemic) [Compound 212]
IC50 [1]: 10 nM
melting point: 289 °C
CC50 at 3 days (in vitro): > 25000 nM

CS(=O)(=O)NCc1cc(F)c(N[C@@H]2CCC[C@H](NC(=O)N3CCCC3)C2)nc1-c1c[nH]c2c(F)cc(F)cc12 (racemic) [Compound 250, N-((cis)-3-((6-(5,7-difluoro-1H-indol-3-yl)-3-fluoro-5-(methylsulfonamidomethyl)pyridin-2-yl)amino)cyclohexyl)pyrrolidine-1-carboxamide]
IC50 [1]: 780 nM
melting point: 252.1 °C
CC50 at 3 days (in vitro): > 25000 nM

CC(=O)NCc1ccc(N[C@H]2CCC[C@@H](NC(=O)N3CCCC3)C2)nc1-c1c[nH]c2c(F)cc(F)cc12 (racemic) [Compound 260, N-((cis)-3-((5-(acetamidomethyl)-6-(5,7-difluoro-1H-indol-3-yl)pyridin-2-yl)amino)-cyclohexyl)pyrrolidine-1-carboxamide]
IC50 [1]: 610 nM
melting point: 235.8 °C
CC50 at 3 days (in vitro): > 25000 nM

Cn1cnc(C(=O)N[C@@H]2CCC[C@H](Nc3nc(-c4c[nH]c5c(F)cc(C(F)(F)F)cc45)ncc3F)C2)c1 (racemic) [Compound 264]
IC50 [1]: 19 nM
melting point: 266.5 °C
CC50 at 3 days (in vitro): 3800 nM

Cc1cnc(C(=O)N[C@@H]2CCC[C@H](Nc3nc(-c4c[nH]c5c(F)cc(Cl)cc45)ncc3F)C2)cn1 (relative stereo) [Compound 11, N-((1R*,3S*)-3-((2-(5-chloro-7-fluoro-1H-indol-3-yl)-5-fluoropyrimidin-4-yl)amino)cyclohexyl)-5-methylpyrazine-2-carboxamide]
IC50 [1]: 40 nM
melting point: 251.5 °C
CC50 at 3 days (in vitro): 9000 nM

O=C(O)c1ccccc1C(=O)N[C@@H]1CCC[C@H](Nc2nc(-c3c[nH]c4c(F)cc(F)cc34)ncc2F)C1 (relative stereo) [Compound 224, 2-(((1R*,3S*)-3-((2-(5,7-difluoro-1H-indol-3-yl)-5-fluoropyrimidin-4-yl)amino)cyclohexyl)carbamoyl)benzoic Acid]
IC50 [1]: 160 nM
melting point: 201.5 °C
CC50 at 3 days (in vitro): > 5000 nM

CC[C@@]1(C(=O)O)CCCC[C@H]1Nc1nc(-c2c[nH]c3c(F)cc(F)cc23)c(C#N)cc1F (relative stereo) [Compound 247, (trans)-2-((5-cyano-6-(5,7-difluoro-1H-indol-3-yl)-3-fluoropyridin-2-yl)-amino)-1-ethylcyclohexanecarboxylic Acid]
IC50 [1]: 50 nM
melting point: 254.9 °C
CC50 at 3 days (in vitro): 400 nM

COc1cccc(C(=O)N[C@@H]2CCC[C@H](Nc3nc(-c4c[nH]c5c(F)cc(Cl)cc45)ncc3F)C2)n1 [Compound 31]
IC50 [1]: 47 nM
melting point: 256.7 °C
CC50 at 3 days (in vitro): 19900 nM

Cc1cccnc1C(=O)N[C@@H]1CCC[C@H](Nc2nc(-c3c[nH]c4c(F)cc(Cl)cc34)ncc2F)C1 [Compound 32]
IC50 [1]: 9 nM
melting point: 226.5 °C
CC50 at 3 days (in vitro): > 22000 nM

O=C(N[C@@H]1CCC[C@H](Nc2nc(-c3c[nH]c4c(F)cc(Cl)cc34)ncc2F)C1)c1cnccn1 [Compound 33]
IC50 [1]: 7 nM
melting point: 249.9 °C
CC50 at 3 days (in vitro): 13800 nM

O=C(N[C@@H]1CCC[C@H](Nc2nc(-c3c[nH]c4c(F)cc(Cl)cc34)ncc2F)C1)c1ncccc1O [Compound 34]
IC50 [1]: 8 nM
melting point: 242.2 °C
CC50 at 3 days (in vitro): 8700 nM

O=C(N[C@@H]1CCC[C@H](Nc2nc(-c3c[nH]c4c(F)cc(Cl)cc34)ncc2F)C1)c1cccc(O)n1 [Compound 35]
IC50 [1]: 3 nM
melting point: 253.4 °C
CC50 at 3 days (in vitro): > 19400 nM

Cc1cc(C(=O)N[C@@H]2CCC[C@H](Nc3nc(-c4c[nH]c5c(F)cc(Cl)cc45)ncc3F)C2)nn1C [Compound 36]
IC50 [1]: 10 nM
melting point: 178.2 °C
CC50 at 3 days (in vitro): 5500 nM

O=C(N[C@@H]1CCC[C@H](Nc2nc(-c3c[nH]c4c(F)cc(Cl)cc34)ncc2F)C1)c1ccsc1 [Compound 37]
IC50 [1]: 1 nM
melting point: > 300 °C
CC50 at 3 days (in vitro): 2400 nM

Nc1cccc(C(=O)N[C@@H]2CCC[C@H](Nc3nc(-c4c[nH]c5c(F)cc(Cl)cc45)ncc3F)C2)n1 [Compound 38]
IC50 [1]: 3 nM
melting point: 268.4 °C
CC50 at 3 days (in vitro): 2700 nM

Cc1cc(C(=O)N[C@@H]2CCC[C@H](Nc3nc(-c4c[nH]c5c(F)cc(Cl)cc45)ncc3F)C2)n(C)n1 [Compound 41]
IC50 [1]: 10 nM
melting point: 281.2 °C
CC50 at 3 days (in vitro): 6000 nM

O=C(N[C@@H]1CCC[C@H](Nc2nc(-c3c[nH]c4c(F)cc(Cl)cc34)ncc2F)C1)c1cnn[nH]1 [Compound 42]
IC50 [1]: 0.5 nM
melting point: 280.1 °C
CC50 at 3 days (in vitro): 3100 nM

Cc1cc(C(=O)N[C@@H]2CCC[C@H](Nc3nc(-c4c[nH]c5c(F)cc(Cl)cc45)ncc3F)C2)n[nH]1 [Compound 43]
IC50 [1]: 4 nM
melting point: 189.2 °C
CC50 at 3 days (in vitro): 2700 nM

Cc1ncn(C)c1C(=O)N[C@@H]1CCC[C@H](Nc2nc(-c3c[nH]c4c(F)cc(Cl)cc34)ncc2F)C1 [Compound 45]
IC50 [1]: 33 nM
melting point: > 300 °C
CC50 at 3 days (in vitro): > 25000 nM

O=C(N[C@@H]1CCC[C@H](Nc2nc(-c3c[nH]c4c(F)cc(Cl)cc34)ncc2F)C1)c1ncccn1 [Compound 46]
IC50 [1]: 5 nM
melting point: 286.8 °C
CC50 at 3 days (in vitro): 4800 nM

Cc1scnc1C(=O)N[C@@H]1CCC[C@H](Nc2nc(-c3c[nH]c4c(F)cc(Cl)cc34)ncc2F)C1 [Compound 47]
IC50 [1]: 3 nM
melting point: > 300 °C
CC50 at 3 days (in vitro): 7400 nM

Cc1ocnc1C(=O)N[C@@H]1CCC[C@H](Nc2nc(-c3c[nH]c4c(F)cc(Cl)cc34)ncc2F)C1 [Compound 48]
IC50 [1]: 4 nM
melting point: 253.4 °C
CC50 at 3 days (in vitro): 5000 nM

Cn1nncc1C(=O)N[C@@H]1CCC[C@H](Nc2nc(-c3c[nH]c4c(F)cc(Cl)cc34)ncc2F)C1 [Compound 49]
IC50 [1]: 9 nM
melting point: 249.6 °C
CC50 at 3 days (in vitro): > 25000 nM

Cc1nc(C(=O)N[C@@H]2CCC[C@H](Nc3nc(-c4c[nH]c5c(F)cc(Cl)cc45)ncc3F)C2)no1 [Compound 50]
IC50 [1]: 24 nM
melting point: 276.7 °C
CC50 at 3 days (in vitro): > 25000 nM

O=C(N[C@@H]1CCC[C@H](Nc2nc(-c3c[nH]c4c(F)cc(Cl)cc34)ncc2F)C1)c1cc[nH]n1 [Compound 51]
IC50 [1]: 1 nM
melting point: 263.3 °C
CC50 at 3 days (in vitro): 2800 nM
